Results taken from paper PMC4963206 (ChemMedChem, 2016).
Read-outs that look alike come from different tables or passages of the source.

Columns and labels:
[1] = test system: AR230^R cells; assay: Phenotypic screening / cytotoxicity in TKI-resistant CML cell line AR230^R; assay type: cell-based; settings: for IC50: read-out: IC50 AR230^R; for Fold Difference: Table 3, AR230 vs AR230^R
[2] = test system: AR230 cells; assay: Phenotypic screening / cytotoxicity in CML cell line AR230; assay type: cell-based; settings: read-out: IC50 AR230

SMILES | IC50 ([1]; Table 4) | IC50 ([2]; Table 4) | Fold Difference [1] | IC50 ([1]; Table 3) | IC50 ([2]; Table 3) | other results
CC(C)(C)c1ccc(CN(C(=O)CN(C2CC2)S(=O)(=O)c2ccc(F)cc2)c2ccc(C(=O)O)cc2)cc1 [AES1-094, 4-(N-(4-(tert-butyl)benzyl)-2-((N-cyclopropyl-4-fluorophenyl)sulfonamido)acetamido)benzoic acid] | 10.6 µM | > 32 µM |  |  |  | 
O=C(O)c1ccc(N(Cc2ccc(C3CCCC3)cc2)C(=O)CN(C2CC2)S(=O)(=O)c2c(F)c(F)cc(F)c2F)cc1 [AM1-020, 4-(N-(4-Cyclopentylbenzyl)-2-((N-cyclopropyl-2,3,5,6-tetrafluorophenyl)sulfonamido)acetamido)benzoic acid] | 13.1 µM | > 32 µM |  |  |  | 
Cc1c(F)c(F)c(S(=O)(=O)N(CC(=O)N(Cc2ccc(C3CCCC3)cc2)c2ccc(C(=O)O)cc2)C2CC2)c(F)c1F [AM1-030, 4-(N-(4-Cyclopentylbenzyl)-2-((N-cyclopropyl-2,3,5,6-tetrafluoro-4-methylphenyl)sulfonamido)acetamido)benzoic acid] | 18.6 µM | > 32 µM |  |  |  | 
O=C(O)c1ccc(N(Cc2ccc(C3CCCC3)cc2)C(=O)CN(C2CC2)S(=O)(=O)c2c(F)c(F)c(C(F)(F)F)c(F)c2F)cc1 [AM1-066, 4-(N-(4-Cyclopentylbenzyl)-2-((N-cyclopropyl-2,3,5,6-tetrafluoro-4-(trifluoromethyl)phenyl)sulfonamido)acetamido)benzoic acid] | 21.6 µM | 20.4 µM |  |  |  | 
O=C(O)c1ccc(N(Cc2ccc(C3CCCC3)cc2)C(=O)CN(C2CC2)S(=O)(=O)c2c(F)c(F)c(Br)c(F)c2F)cc1 [AM1-077, 4-(N-(4-Cyclopentylbenzyl)-2-((N-cyclopropyl-2,3,5,6-tetrafluoro-4-bromophenyl)sulfonamido)acetamido)benzoic acid] | 20.3 µM | 25.1 µM |  |  |  | 
O=C(O)c1ccc(N(Cc2ccc(C3CCCC3)cc2)C(=O)CN(C2CC2)S(=O)(=O)c2c(F)c(F)c(Cl)c(F)c2F)cc1 [AM1-112, 4-(N-(4-Cyclopentylbenzyl)-2-((N-cyclopropyl-2,3,5,6-tetrafluoro-4-chlorophenyl)sulfonamido)acetamido)benzoic acid] | 30.7 µM | > 32 µM |  |  |  | 
O=C(O)c1ccc(N(Cc2ccc(C3CCCC3)cc2)C(=O)CN(C2CC2)S(=O)(=O)c2ccc(F)nc2)cc1 [AM1-116, 4-(N-(4-Cyclopentylbenzyl)-2-((N-cyclopropyl-6-fluoropyridine)-3-sulfonamido)acetamido)benzoic acid] | > 32 µM | > 32 µM |  |  |  | 
O=C(O)c1ccc(N(Cc2ccc(C3CCCC3)cc2)C(=O)CN(C2CC2)S(=O)(=O)c2ccc(F)cn2)cc1 [AM1-117, 4-(N-(4-Cyclopentylbenzyl)-2-((N-cyclopropyl-5-fluoropyridine)-2-sulfonamido)acetamido)benzoic acid] | > 32 µM | > 32 µM |  |  |  | 
O=C(O)c1ccc(N(Cc2ccc(C3CCCCC3)cc2)C(=O)CN(C2CC2)S(=O)(=O)c2c(F)c(F)c(F)c(F)c2F)cc1 [DR-3-036] |  |  |  |  |  | IC50 ([1]; Table 2): 2.6 µM; IC50 ([2]; Table 2): 4.3 µM
O=C(O)c1ccc(N(Cc2ccc(C3CCCC3)cc2)C(=O)CN(C2CC2)S(=O)(=O)c2c(F)c(F)c(F)c(F)c2F)cc1 [DR-3-093, 4-(N-(4-Cyclopentylbenzyl)-2-((N-cyclopropyl-2,3,4,5,6-pentafluorophenyl)sulfonamido)acetamido)benzoic acid] |  |  | 2.75 | 1.2 µM | 3.3 µM | 
O=C(O)c1ccc(N(Cc2ccc(C3CCCC3)cc2)C(=O)CNS(=O)(=O)c2c(F)c(F)c(F)c(F)c2F)cc1 [DR-3-111, 4-(N-(4-Cyclopentylbenzyl)-2-((perfluorophenyl)sulfonamido)acetamido)benzoic acid] |  |  |  |  |  | fold reduction in activity vs SH-4-54 ([1]; AR230^R cells): ~5 fold; IC50 [1]: 15.6 µM; IC50 [2]: 11.4 µM
CC1(C)CCC(c2ccc(CN(C(=O)CN(C3CC3)S(=O)(=O)c3c(F)c(F)c(F)c(F)c3F)c3ccc(C(=O)O)cc3)cc2)CC1 [DR-3-119, 4-(2-((N-Cyclopropyl-2,3,4,5,6-pentafluorophenyl)sulfonamido)-N-(4-(4,4-dimethylcyclohexyl)benzyl)acetamido)benzoic acid] |  |  | 1.81 | 3.2 µM | 5.8 µM | 
CC(C)(C)c1ccc(CN(C(=O)CN(C2CC2)S(=O)(=O)c2c(F)c(F)c(F)c(F)c2F)c2ccc(C(=O)O)cc2)cc1 [DR-3-162, 4-(N-(4-(tert-butyl)benzyl)-2-((N-cyclopropyl-2,3,4,5,6-pentafluorophenyl)sulfonamido)acetamido)benzoic acid] |  |  | 4 | 0.8 µM | 3.2 µM | fold selectivity for AR230^R over AR230 cells [1]: 4 fold; fold more potent ([1]; AR230^R cells): 3 fold
O=C(O)c1ccc(N(Cc2ccc(C3CCCCCC3)cc2)C(=O)CN(C2CC2)S(=O)(=O)c2c(F)c(F)c(F)c(F)c2F)cc1 [DR-3-165, 4-(N-(4-Cycloheptylbenzyl)-2-((N-cyclopropyl-2,3,4,5,6-pentafluorophenyl)sulfonamido)acetamido)benzoic acid] |  |  | 2.45 | 1.1 µM | 2.7 µM | 
O=C(O)c1ccc(N(Cc2ccc(C(F)(F)F)cc2)C(=O)CN(C2CC2)S(=O)(=O)c2c(F)c(F)c(F)c(F)c2F)cc1 [DR-3-186, 4-(2-(N-cyclopropyl-2,3,4,5,6-pentafluorophenylsulfonamido)-N-(4-(trifluoromethyl)benzyl)acetamido)benzoic acid] |  |  | 1.94 |  |  | fold selectivity for AR230^R over AR230 cells [1]: < 2 fold; IC50 [1]: 0.72 µM; IC50 [2]: 1.4 µM
O=C(O)c1ccc(N(Cc2ccc(Cl)cc2)C(=O)CN(C2CC2)S(=O)(=O)c2c(F)c(F)c(F)c(F)c2F)cc1 [DR-4-003, 4-(N-(4-Chlorobenzyl)-2-((N-cyclopropyl-2,3,4,5,6-pentafluorophenyl)sulfonamido)acetamido)benzoic acid] |  |  | 2.41 | 1.7 µM | 4.1 µM | 
O=C(O)c1ccc(N(Cc2ccc(C3CCC3)cc2)C(=O)CN(C2CC2)S(=O)(=O)c2c(F)c(F)c(F)c(F)c2F)cc1 [DR-4-020, 4-(N-(4-Cyclobutylbenzyl)-2-((N-cyclopropyl-2,3,4,5,6-pentafluorophenyl)sulfonamido)acetamido)benzoic acid] |  |  | 2.05 | 4.2 µM | 8.6 µM | 
O=C(O)c1ccc(N(Cc2ccc(C3CCOCC3)cc2)C(=O)CN(C2CC2)S(=O)(=O)c2c(F)c(F)c(F)c(F)c2F)cc1 [DR-4-042] |  |  | 1.12 | 4.2 µM | 4.7 µM | 
CC(C)N(CC(=O)N(Cc1ccc(C2CCCCC2)cc1)c1ccc(C(=O)O)cc1)S(=O)(=O)c1c(F)c(F)c(F)c(F)c1F [PSL-3-40, 4-(N-(4-cyclohexylbenzyl)-2-(2,3,4,5,6-pentafluoro-N-isopropylphenylsulfonamido)acetamido)benzoic acid] |  |  |  |  |  | IC50 [1]: 14.2 µM; IC50 [2]: 8.7 µM
O=C(O)c1ccc(N(Cc2ccc(N3CCOCC3)cc2)C(=O)CN(C2CC2)S(=O)(=O)c2c(F)c(F)c(F)c(F)c2F)cc1 [PSL-3-089] |  |  | 1.42 | 5.2 µM | 7.4 µM | 
O=C(O)c1ccc(N(Cc2ccccc2)C(=O)CN(C2CC2)S(=O)(=O)c2c(F)c(F)c(F)c(F)c2F)cc1 [PSL-3-115] |  |  | 2.26 | 2.3 µM | 5.2 µM | 
O=C(O)c1ccc(N(Cc2ccc(F)cc2)C(=O)CN(C2CC2)S(=O)(=O)c2c(F)c(F)c(F)c(F)c2F)cc1 [PSL-3-122] |  |  | 2.03 | 3 µM | 6.1 µM | 
O=C(O)c1ccc(N(Cc2ccc(C3CC3)cc2)C(=O)CN(C2CC2)S(=O)(=O)c2c(F)c(F)c(F)c(F)c2F)cc1 [PSL-3-132] |  |  | 1.75 | 2.4 µM | 4.2 µM | 
O=C(O)c1ccc(N(Cc2ccc(C3CCCC3)cc2)C(=O)CN(C2CC2)S(=O)(=O)c2cccnc2)cc1 [RG1-066, 4-(N-(4-Cyclopentylbenzyl)-2-(N-cyclopropylpyridine-3-sulfonamido)acetamido)benzoic acid] |  |  |  |  |  | IC50 [1]: > 32 µM; IC50 [2]: > 32 µM
O=C(O)c1ccc(N(Cc2ccc(C3CCCC3)cc2)C(=O)CN(C2CC2)S(=O)(=O)c2ccccn2)cc1 [RG1-085, 4-(N-(4-Cyclopentylbenzyl)-2-(N-cyclopropylpyridine-2-sulfonamido)acetamido)benzoic acid] |  |  |  |  |  | IC50 [1]: > 32 µM; IC50 [2]: > 32 µM
